Measurements reported in patent US20250388605A1, “HETEROBIFUNCTIONAL COMPOUNDS AND METHODS OF TREATING DISEASE” (Halda Therapeutics OpCo, Inc., priority 2022, published 2025).

Tests used:
[1] = tested on: T-Rex 293 cell line SC3 cells lacking increased expression of androgen receptor protein; assay: Cellular growth inhibition, T-Rex 293 SC3 cells without doxycycline (no increased androgen receptor expression), CellTiter-Glo; type: cell-based; conditions: T-Rex 293 SC3 cells not exposed to doxycycline (no increased androgen receptor expression), 72 hours
How it was run: (§1)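 Growth inhibition is measured in an inducible AR-expressing T-Rex 293 clone, SC3, cultured with or without 10 ng/mL doxycycline in hormone-depleted medium. Test compounds are applied for 72 hours. GI50 values derive from CellTiter-Glo 2.0 signal fitted by four-parameter regression.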

T47D cells = assay: Cellular Growth Inhibition Assay for T47D Cells (CellTiter-Glo); type: cell-based, human; conditions: 72 hours
How it was run: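 GI50 values derive from four-parameter regression of CellTiter-Glo 2.0 luminescence, using zero luminescence as baseline. Human breast cancer T47D cells (3000/well; DMEM, 10% FBS, 0.2 units/mL insulin) were exposed for 72 h to compound dilutions at 0.5% DMSO, with dosing starting 24 h after seeding.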

[2] = tested on: T-Rex 293 cell line SC3 cells having increased expression of androgen receptor protein due to exposure to doxycycline; assay: Cellular growth inhibition, T-Rex 293 SC3 cells with doxycycline (increased androgen receptor expression), CellTiter-Glo; type: cell-based; conditions: T-Rex 293 SC3 cells with 10 ng/mL doxycycline (increased androgen receptor expression), 72 hours, CellTiter-Glo 2.0
How it was run: as §1

Row | Compound | GI50 (T47D cells; Homo sapiens) [nM] | GI50 (T47D cells) [nM] | GI50 [1] [nM] | GI50 [2] [nM]
1 | Cn1cc(-c2cc(C(C)(C)O)ccc2Oc2ccc(N3CC4(C3)CN(c3ncc(C(=O)N[C@H]5C(C)(C)[C@H](Oc6ccc(C#N)c(Cl)c6)C5(C)C)cn3)CCO4)cc2)c2cc[nH]c2c1=O [Compound I-212] |  | 500 to 1500 | 500 to 1500 | < 500
2 | CCS(=O)(=O)Nc1ccc(Oc2cccc(N3CC(N(C)C4CN(c5ncc(C(=O)N[C@H]6C(C)(C)[C@H](Oc7ccc(C#N)c(Cl)c7)C6(C)C)cn5)C4)C3)c2)c(-c2cn(C)c(=O)c3[nH]ccc23)c1 [Compound I-120] | < 500 |  | > 3000 | < 500
3 | CCS(=O)(=O)Nc1ccc(Oc2cccc(N3CC(N4CCN(c5ncc(C(=O)N[C@H]6C(C)(C)[C@H](Oc7ccc(C#N)c(Cl)c7)C6(C)C)cn5)CC4)C3)c2)c(-c2cn(C)c(=O)c3[nH]ccc23)c1 [Compound I-75] | < 500 |  | < 500 | < 500
4 | Cn1cc(-c2cc(C(C)(C)O)ccc2Oc2cccc(N3CC4(CN(c5ncc(C(=O)N[C@H]6C(C)(C)[C@H](Oc7ccc(C#N)c(Cl)c7)C6(C)C)cn5)CCO4)C3)c2F)c2cc[nH]c2c1=O [Compound I-216] | < 500 |  | < 500 | < 500
5 | CN(c1ccc(Oc2cccc(N3CC(N4CCN(c5ncc(C(=O)N[C@H]6C(C)(C)[C@H](Oc7ccc(C#N)c(Cl)c7)C6(C)C)cn5)CC4)C3)c2F)c(-c2cn(C)c(=O)c3[nH]ccc23)c1)S(=O)(=O)C1CC1 [Compound I-91] | 500 to 1500 |  | > 3000 | < 500
6 | CCS(=O)(=O)Nc1ccc(Oc2cccc(OCCOC3CCN(c4ncc(C(=O)N[C@H]5C(C)(C)[C@H](Oc6ccc(C#N)c(Cl)c6)C5(C)C)cn4)CC3)c2)c(-c2cn(C)c(=O)c3c2ccn3C)c1 [Compound I-121] | 500 to 1500 |  | > 3000 | < 500

Continued, in another order:

Row | GI50 (T47D cells; Homo sapiens) [nM] | GI50 (T47D cells) [nM] | Compound | GI50 [1] [nM] | GI50 [2] [nM]
7 | 500 to 1500 |  | Cn1cc(-c2cc(C(C)(C)O)ccc2Oc2cccc(OCCC3CCN(c4ncc(C(=O)N[C@H]5C(C)(C)[C@H](Oc6ccc(C#N)c(Cl)c6)C5(C)C)cn4)CC3)c2F)c2cc[nH]c2c1=O [Compound I-142] | 1500 to 3000 | < 500
8 | < 500 |  | CCS(=O)(=O)Nc1ccc(Oc2cccc(NCCOC3CCN(c4ncc(C(=O)N[C@H]5C(C)(C)[C@H](Oc6ccc(C#N)c(Cl)c6)C5(C)C)cn4)CC3)c2)c(-c2cn(C)c(=O)c3[nH]ccc23)c1 [Compound I-84] | < 500 | < 500
9 | 500 to 1500 |  | Cn1cc(-c2cc(N)ccc2Oc2cccc(OCCC3CCN(c4ncc(C(=O)N[C@H]5C(C)(C)[C@H](Oc6ccc(C#N)c(Cl)c6)C5(C)C)cn4)CC3)c2)c2cc[nH]c2c1=O [Compound I-101] | > 3000 | < 500
10 | 500 to 1500 |  | Cn1cc(-c2cc(N)ccc2Oc2cccc(N3CC(N4CCN(c5ncc(C(=O)N[C@H]6C(C)(C)[C@H](Oc7ccc(C#N)c(Cl)c7)C6(C)C)cn5)CC4)C3)c2F)c2cc[nH]c2c1=O [Compound I-93] | > 3000 | < 500
11 | < 500 |  | CCS(=O)(=O)Cc1ccc(Oc2cccc(OCCOC3CCN(c4ncc(C(=O)N[C@H]5C(C)(C)[C@H](Oc6ccc(C#N)c(Cl)c6)C5(C)C)cn4)CC3)c2)c(-c2cn(C)c(=O)c3[nH]ccc23)c1 [Compound I-54, N-((1r, 3r)-3-(3-chloro-4-cyanophenoxy)-2,2,4,4-tetramethylcyclobutyl)-2-(4-(2-(3-(4-((ethylsulfonyl)methyl)-2-(6-methyl-7-oxo-6,7-dihydro-1H-pyrrolo[2,3-c]pyridin-4-yl)phenoxy)phenoxy)ethoxy)piperidin-1-yl)pyrimidine-5-carboxamide] | < 500 | < 500
12 |  | 500 to 1500 | Cn1cc(-c2cc(C(C)(C)O)ccc2Oc2cccc(OCCC3CCN(c4ncc(C(=O)N[C@H]5C(C)(C)[C@H](Oc6ccc(C#N)c(Cl)c6)C5(C)C)cn4)CC3)c2)c2cc[nH]c2c1=O [Compound I-156] | > 3000 | < 500
